“Also recorded” adds a separate entry of the source.
Key:
[1] = tested on: human axo-axonic cell; conditions: gabazine 20 μM
Protocol: Anaesthesia was induced with intravenous midazolam and fentanyl (0.03 mg/kg and 1-2 μg/kg, respectively). A bolus dose of propofol (1-2 mg/kg) was administered intravenously. To facilitate endotracheal intubation, the patient recieved 0.5 mg/kg rocuronium. After 120 seconds, the trachea was intubated and the patient was ventilated with a mixture of O2—N2O at a ratio of 1:2. Anaesthesia was maintained with sevoflurane at MAC volume of 1.2-1.5. Slices were incubated at room temperature for 1 hour in a solution composed of 130 mM NaCl, 3.5 mM KCl, 1 mM NaH2PO4, 24 mM NaHCO3, 1 mM CaCl2, 3 mM MgSO4 and 10 mM D(+)-glucose, saturated with 95% O2 and 5% CO2. The solution used during recordings differed only in that it contained 3 mM CaCl2 and 1.5 mM MgSO4. Recordings were obtained at ˜35° C. from up to four concomitantly recorded cells visualized in layer 2/3 by infrared differential interference contrast videomicroscopy (Olympus BX60WI microscope, Hamamatsu CCD camera, Luigs & Neumann Infrapatch set-up and two HEKA EPC 10/double patch-clamp amplifiers). Signals were filtered at 8 kHz, digitized at 16 kHz and analyzed with PULSE software (HEKA). Micropipettes (5-7 MW) were filled with three types of solutions. […] Access resistance was continuously monitored throughout perforated patch experiments to check membrane rupture. […]

[2] = tested on: axo-axonic cells (AACs) and postsynaptic neurons, layer 2/3 somatosensory cortex slices; assay: Multiple whole-cell recordings of synaptic event sequences triggered by AACs in rat cortical slices; format: cell-based
Protocol: (§1) For perforated patch experiments, 3 mg/ml gramicidin (Sigma) was used, dissolved in DMSO and diluted to a final concentration of 9 μg/ml in the low [Cl^−]in pipette solution. […] Membrane potentials were corrected for junction potentials. […] Pressure waves (˜5 μm in diameter) and pipette positions on the soma and along the axon initial segment (30-40 μm from the soma) were imaged and the postsynaptic cell membrane was ruptured by gentle suction pulses to allow biocytin labelling and post-hoc comparison of pipette positions with light microscopic reconstructions. Cells were excluded from analysis if basal dendrites were closer than ˜30 μm to the pressure pipette and/or initial segment.

[3] = tested on: pyramidal cell (soma and axon initial segment); assay: Pressure application of GABA to soma and axon initial segment of pyramidal cells; format: cell-based, rat
Protocol: as §1
To characterize the interaction of axo-axonic cells (AACs) and their postsynaptic neurons, first the reversal potential of GABAergic inputs arriving to the perisomatic region of pyramidal cells was determined, elicited by AACs and basket cells in layers 2/3 of rat somatosensory cortex in vitro (FIG. 1). Paired recordings of presynaptic interneurons and postsynaptic pyramidal cells were performed using the gramicidin perforated patch placed onto the axon hillock between the soma and the initial segment. […] AACs were identified based on light microscopic reconstructions and analysis showing axonal candles or cartridges specific to this cell type [Szentagothai and Arbib (1974); Somogyi (1977)]

[4] = gabazine 20 μM, low [Cl−]in, reversible on washout

COc1ccc(-c2ccc(=N)n(CCCC(=O)O)n2)cc1 [gabazine]
effect on disynaptic EPSPs and downstream spikes [1]: blocked | effect on disynaptic EPSPs triggered by AACs [2, 4]: blocked | effect on monosynaptic (unitary) IPSPs [2, 4]: blocked

NCCCC(=O)O [GABA, gamma-aminobutyric acid]
reversal potential of GABA response, soma ([3]; GABA 1 mM pressure application to soma, perforated patch, n=7): −71.2±2.7 mV | trials with spikes triggered below somatic threshold potential ([3]; GABA to axon initial segment, high [Cl−]in, whole cell mode, n=4 cells): 7±3 % of trials | threshold potential of spikes triggered by GABA applied to axon initial segment ([3]; high [Cl−]in intracellular solution, whole cell mode, n=4 cells): −64.2±2.8 mV | triggering short latency spikes from hyperpolarized membrane potentials ([3]; pressure application of GABA to axon initial segment, high [Cl−]in): not effective

NS(=O)(=O)c1cccc2c1c([N+](=O)[O-])cc1nc(O)c(O)nc12 [NBQX]
effect on unitary IPSP ([2]; NBQX 10 μM): no effect | effect on disynaptic EPSPs triggered by AACs ([2]; NBQX 10 μM, recovery upon washout): blocked; also recorded: reversibly eliminated
